# Test results from ChEMBL document CHEMBL5244267, “A brief overview on recent advances in spiro[chromane-2,4'-piperidine]-4(3H)-one-functionalized compounds in medicinal chemistry research” (Bioorg Med Chem, 2020).
# Assays:
# Carbonic anhydrase 9 = Carbonic anhydrase 9 (Homo sapiens, UniProt Q16790); experiment: Binding affinity to human CA9 assessed as inhibition constant
# [1] = Antioxidant activity assessed as DPPH free radical scavenging activity at 500 microg/ml; format: functional
# A2780 = experiment: Anticancer activity against human A2780 cells assessed as inhibition of cell proliferation measured after 48 hrs by MTT assay; format: functional, cell-based; conditions: A2780, 48 h
# MCF7 = experiment: Anticancer activity against human MCF7 cells assessed as inhibition of cell proliferation measured after 48 hrs by MTT assay; format: functional, cell-based; conditions: MCF7, 48 h
# HT-29 = experiment: Anticancer activity against human HT-29 cells assessed as inhibition of cell proliferation measured after 48 hrs by MTT assay; format: functional, cell-based; conditions: HT-29, 48 h
# Erythrocyte = experiment: Anti-inflammatory activity in human red blood cells assessed as protection of cell membrane at 100 ug/mL relative to control; format: functional; conditions: dose 100 µg/ml
# [2] = Antioxidant activity assessed as DPPH radical scavenging activity at 100 uM/ml; format: functional
# [3] = AUC (0 to infinity) in CD1 mouse at 10 mg/kg, iv administered as single dose by UPLC analysis; format: ADME, organism-based; set-up: dose 10 mg/kg, route iv; conditions: in vivo
# [4] = Volume of distribution in CD-1 mouse at 10 mg/kg iv measured by UPLC-MS/MS method; format: ADME, organism-based; conditions: in vivo
# [5] = Clearance in CD-1 mouse at 10 mg/kg iv measured by UPLC-MS/MS method; format: ADME, organism-based; conditions: in vivo
# [6] = Cmax in CD1 mouse at 0.5 mg/kg, iv; format: ADME, organism-based; set-up: dose 0.5 mg/kg, route iv; conditions: in vivo
# [7] = Half life in CD1 mouse at 3 mg/kg, iv; format: ADME, organism-based; conditions: in vivo
# [8] = AUC in CD1 mouse at 10 mg/kg, iv administered as single dose by UPLC analysis; format: ADME, organism-based; set-up: dose 10 mg/kg, route iv; conditions: in vivo
# [9] = Antioxidant activity assessed as H2O2 radical scavenging activity; format: functional
# [10] = Aqueous solubility of the compound at pH 6.2; format: physicochemical; conditions: buffer
# [11] = Lipophilicity, logP of the compound; format: physicochemical; conditions: octanol/water
# [12] = Aqueous solubility of the compound at pH 5.0; format: physicochemical; conditions: buffer
# HepG2 = experiment: Antiproliferative activity against human HepG2 cells assessed as reduction in cell viability after 24 hrs by MTT assay; format: functional, cell-based; conditions: HepG2, 24 h
# Plasmodium falciparum = experiment: Antiplasmodial activity against chloroquine-resistant Plasmodium falciparum Dd2 in HepG2 cells; format: functional, organism-based
# [13] = target: Acetyl-CoA carboxylase 1 (Rattus norvegicus) (UniProt P11497); experiment: In vivo inhibition of ACC1 in Sprague-Dawley rat assessed as reduction in malonyl-CoA in liver; format: functional
# [14] = target: Acetyl-CoA carboxylase 1 (Rattus norvegicus) (UniProt P11497); experiment: In vivo inhibition of ACC1 in Sprague-Dawley rat assessed as reduction in malonyl-CoA in liver at […] relative to control; format: functional
# [15] = In vivo inhibition of ACC2 in Sprague-Dawley rat assessed as reduction in malonyl-CoA in quadriceps at […] relative to control; format: functional
# [16] = In vivo inhibition of ACC2 in Sprague-Dawley rat assessed as reduction in malonyl-CoA in quadriceps; format: functional
smiles,measurement,setting,value
NS(=O)(=O)c1ccc(N2CCC3(CC2)CC(=O)c2cc(Br)ccc2O3)c([N+](=O)[O-])c1,Ki,Carbonic anhydrase 9,0.199 µM
O=C1Nc2ccccc2/C1=C/C(=O)c1cc2c(cc1O)OC1(CCN(Cc3ccccc3)CC1)CC2=O,IC50,[1],8.12 µM
CCCOc1ccc2c(c1)C(=O)CC1(CCN(c3ccc(S(N)(=O)=O)cc3[N+](=O)[O-])CC1)O2,Ki,Carbonic anhydrase 9,1.24 µM
CC(=O)N1CCC2(CC1)CC(=O)c1cc(C(=O)/C=C3\C(=O)Nc4ccccc43)c(O)cc1O2,IC50,[1],47.7 µM
COc1cc(C(=O)N2CCC3(CC2)CC(=O)c2ccccc2O3)cc(OC)c1OC,IC50,A2780,18.8 µM
same,IC50,MCF7,47.1 µM
same,IC50,HT-29,23.2 µM
CN1CCC2(CC1)CC(=O)c1c(ccc3c1CCC(C)(C)O3)O2,Activity,Erythrocyte,64.72%
same,IC50,[2]; read-out: IC50,6.59 µM
NS(=O)(=O)c1ccc(N2CCC3(CC2)CC(=O)c2cc(OCCO)ccc2O3)c([N+](=O)[O-])c1,Ki,Carbonic anhydrase 9,3.75 µM
CCOc1ccc2c(c1)C(=O)CC1(CCN(c3ccc(S(N)(=O)=O)cc3[N+](=O)[O-])CC1)O2,Ki,Carbonic anhydrase 9,2.84 µM
CCOc1ccc2c(c1)OC1(CCN(c3ccc(S(N)(=O)=O)cc3[N+](=O)[O-])CC1)CC2=O,Ki,Carbonic anhydrase 9,2.65 µM
CCCOc1ccc2c(c1)OC1(CCN(c3ccc(S(N)(=O)=O)cc3[N+](=O)[O-])CC1)CC2=O,Ki,Carbonic anhydrase 9,4.15 µM
O=C(/C=C/c1ccc2c(c1)C(=O)CC1(CCN(CCc3ccccc3)CC1)O2)NO,AUC,[3]; mouse,1042 ng·h/mL
same,Vd,[4],8.6 L/kg
same,CL,"[5]; mouse, iv, 10 mg/kg",79.8 mL/min/kg
same,Cmax,[6],2490 nM
same,half-life,[7],9.1 h
same,AUC,[8],1600 ng·h/mL
CC(C)Oc1ccc2c(c1)OC1(CCN(c3ccc(S(N)(=O)=O)cc3[N+](=O)[O-])CC1)CC2=O,Ki,Carbonic anhydrase 9,0.0346 µM
CC(C)Oc1ccc2c(c1)C(=O)CC1(CCN(c3ccc(S(N)(=O)=O)cc3[N+](=O)[O-])CC1)O2,Ki,Carbonic anhydrase 9,3.3 µM
Cc1c(C(=O)c2ccc(-c3ccccc3)cc2)oc2cc3c(cc12)C(=O)CC1(CCN(CC(=O)OC(C)(C)C)CC1)O3,IC50,[9],44.73 µg/mL
same,IC50,[2],63.92 µg/mL
NS(=O)(=O)c1ccc(N2CCC3(CC2)CC(=O)c2ccc(OCCO)cc2O3)c([N+](=O)[O-])c1,Ki,Carbonic anhydrase 9,0.0465 µM
NS(=O)(=O)c1ccc(N2CCC3(CC2)CC(=O)c2ccc(O)cc2O3)c([N+](=O)[O-])c1,Ki,Carbonic anhydrase 9,4.41 µM
CC(=O)N1CCC2(CC1)CC(=O)c1cc(C(=O)/C=C3\C(=O)Nc4ccc(Br)cc43)c(O)cc1O2,IC50,[1],58.6 µM
CC(=O)Oc1ccc2c(c1)C(=O)CC1(CCN(c3ccc(S(N)(=O)=O)cc3[N+](=O)[O-])CC1)O2,Ki,Carbonic anhydrase 9,4.08 µM
O=C1CC2(CCN(C(=O)C34CC5CC(CC(C5)C3)C4)CC2)Oc2ccccc21,IC50,A2780,22.7 µM
same,IC50,MCF7,23.9 µM
same,IC50,HT-29,8.46 µM
OC(CN1CCC2(CC1)CC(O)c1ccc3ccccc3c1O2)c1ccc(F)c(F)c1 (stereo unspecified),solubility,[10],> 42 µg/mL
same,logP,[11],3.85
same,solubility,[12],> 42 µg/mL
same,EC50,HepG2,19 µM
same,EC50,Plasmodium falciparum,0.35 µM
O=C(/C=C/c1ccc2c(c1)C(=O)CC1(CCN(Cc3ccc(F)cc3)CC1)O2)NO,AUC(0-inf),"[3]; CD1, mouse",1490 ng·h/mL
same,Vd,[4],5.9 L/kg
same,clearance,"[5]; CD-1, mouse",55.8 mL/min/kg
same,Cmax,[6],1830 nM
same,half-life,[7],13 h
same,AUC,[8],1240 ng·h/mL
CC(=O)N1CCC2(CC1)CC(=O)c1c(ccc3c1CCC(C)(C)O3)O2,Activity,Erythrocyte,56.1%
same,IC50,[2]; read-out: IC50,6.59 µM
Cc1ccc2c(c1)C(=O)CC1(CCN(c3ccc(S(N)(=O)=O)cc3[N+](=O)[O-])CC1)O2,Ki,Carbonic anhydrase 9,3.55 µM
NS(=O)(=O)c1ccc(N2CCC3(CC2)CC(=O)c2ccccc2O3)c([N+](=O)[O-])c1,Ki,Carbonic anhydrase 9,0.229 µM
O=C1O[C@H]([C@@H](O)CO)C(O)=C1O [ASCORBIC ACID],IC50,[1],8.64 µM
same,IC50,[2]; read-out: IC50,8.64 µM
CC(C)(C)n1cc2c(n1)C(=O)CC1(CCN(C(=O)c3ccc4[nH]ncc4c3)CC1)O2,ED50,[13],1.6 mg/kg
same,inhibition,[14],75%
same,inhibition (INH),[15],78%
same,ED50,[16],2.6 mg/kg
Cc1ccc(S(=O)(=O)N2CCC3(CC2)CC(=O)c2ccccc2O3)cc1,IC50,A2780,1.79 µM
same,IC50,MCF7,6.78 µM
same,IC50,HT-29,16 µM
NS(=O)(=O)c1ccc(N2CCC3(CC2)CC(=O)c2ccc(Br)cc2O3)c([N+](=O)[O-])c1,Ki,Carbonic anhydrase 9,1.47 µM
CC(C)(C)OCC(=O)CN1CCC2(CC1)CC(=O)c1cc(C(=O)/C=C3\C(=O)Nc4ccccc43)c(O)cc1O2,IC50,[1],6.85 µM
COc1ccc2c(c1)C(=O)CC1(CCN(c3ccc(S(N)(=O)=O)cc3[N+](=O)[O-])CC1)O2,Ki,Carbonic anhydrase 9,1.56 µM
CCOC(=O)N1CCC2(CC1)CC(=O)c1cc(C(=O)/C=C3\C(=O)Nc4ccc(Br)cc43)c(O)cc1O2,IC50,[1],48.5 µM
CC(=O)N1CCC2(CC1)CC(=O)c1cc3c(cc1O2)CCC(C)(C)O3,Activity,Erythrocyte,23.07%
same,IC50,[2]; read-out: IC50,5.32 µM
CCOC(=O)N1CCC2(CC1)CC(=O)c1cc(C(=O)/C=C3\C(=O)Nc4ccccc43)c(O)cc1O2,IC50,[1],1.74 µM
COCCOc1ccc2c(c1)C(=O)CC1(CCN(c3ccc(S(N)(=O)=O)cc3[N+](=O)[O-])CC1)O2,Ki,Carbonic anhydrase 9,4.34 µM
O=C1Nc2ccc(Br)cc2/C1=C/C(=O)c1cc2c(cc1O)OC1(CCN(Cc3ccccc3)CC1)CC2=O,IC50,[1],12.7 µM
COCCOc1ccc2c(c1)OC1(CCN(c3ccc(S(N)(=O)=O)cc3[N+](=O)[O-])CC1)CC2=O,Ki,Carbonic anhydrase 9,0.0454 µM
COc1ccc2c(c1)OC1(CCN(c3ccc(S(N)(=O)=O)cc3[N+](=O)[O-])CC1)CC2=O,Ki,Carbonic anhydrase 9,2.75 µM
CC(C)(C)OCC(=O)CN1CCC2(CC1)CC(=O)c1cc(C(=O)/C=C3\C(=O)Nc4ccc(Br)cc43)c(O)cc1O2,IC50,[1],56.3 µM
